Measured values: publication PMC4191062, “Development of αGlcN(1↔1)αMan-Based Lipid A Mimetics as a Novel Class of Potent Toll-like Receptor 4 Agonists” (Journal of Medicinal Chemistry, 2014)

Tests used:
human dendritic cells = assay: Cytokine production in human monocyte-derived dendritic cells (Luminex); format: cell-based; conditions: hDCs, 24 h
Experimental: Activated DCs were examined for the production of pro-inflammatory cytokines TNF-α, IL-6, and IL-12, which contribute to the modulation of the T cell response and innate effector functions.[57] The release of TNF-α and IL-6 reached nearly maximum levels (attained with 10 ng/mL LPS) at the α,α-GM-LAM 1 concentration of 1 ng/mL (Figure 7A).
Human peripheral blood monocytes were cultured for 6 days in GM-CSF and IL-4 to receive immature monocyte-derived DCs and were then stimulated with the indicated concentrations of 1 and 3 using 10 ng/mL LPS as positive control (solutions in PRMI containing 10% FCS and 0.005–0.01% DMSO). The amounts of IL-6, IL-12, IL-10, and TNF-α in the supernatants of the cells were analyzed after 24 h by Luminex. Results are representative of three independent experiments for 1 and of two experiments for 3. Mean values of duplicate examinations ± SD are presented.

THP-1 cells = assay: IRF-3 and IκBα phosphorylation by western blotting in THP-1 cells; format: cell-based, human
Experimental: Supplementary SI-Figure 3
Dose-dependent responses (THP-1 cells: α,α-GM-LAM 1-3 and Re-LPS) at the concentration range 0.4 – 100 ng/ml which are presented in the Figure 5, were extended to the higher concentration range (up to 300 ng/ml).
SI-Figure 3. Dose-dependent expression of cytokines induced by α,α-GM-LAM 1-3 in macrophage cell line THP-1 compared to E. coli Re-LPS at the concentration range 0.4 – 300 ng/ml. (A) Production of TNF-α; (B) Induction of […]
Supplementary SI-Figure 4
Lipid A mimetic 1 was examined for the activation of NF-κB (Nuclear factor kappaB) and IRF3
(Interferon regulatory factor 3). IRF3 activation […]
noticeable after 1h stimulation, though was
LPS. At 1h stimulation the α,α-GM-LAM 1 was […]
whereas at 3h simulation compound 1 (at a […]
stronger phosphorylation of IκBa (P-IκBa levels) as well as the higher levels of IκBa (reflecting the NF-κB dependent re-synthesis of IκB following its
Thus, IRF3 activation and NF-κB activation […]
degradation and its NF-κB dependent resynthesis) […]
compared to LPS after 3h stimulation.
SI-Figure 4. NF-κB and IRF-3 activation by LPS and α,α-GM-LAM 1 in macrophage-like cell line THP-1. THP-1 cells were treated for 1 h (upper panel) or for 3 h (lower panel) with 1 or with E. coli O111:B4 LPS at the concentrations 10, 100 and 1000 ng/ml. Non treated cells (NT) or cells treated with DMSO were used as controls.
Cell extracts were separated by SDS polyacrylamide gel electrophoresis. Phosphorylated or total IRF-3 and IκBα was detected by western blotting as indicated. Actin detection was used as a control for equal loading in each line. […]
Supplementary SI-Figure 6
The relative contribution of hydrophobic (acyl chains of Lipid A) and electrostatic (phosphate groups of Lipid A) interactions at the dimerization interface of two TLR4·MD-2·LPS complexes as well as the impact of the molecular shape of MD-2–bound Lipid A on the initiation of TLR4-mediated immune response remains largely unknown. […]

Structure (SMILES) | concentration at which release of TNF-α and IL-6 reached nearly maximum levels (attained with 10 ng/mL LPS) (human dendritic cells) [ng/mL] | expression of IL-12 (human dendritic cells) | activation of NF-κB compared with LPS (THP-1 cells; THP-1, 1 h stimulation) | IRF3 activation (IRF-3 phosphorylation) (THP-1 cells; THP-1, 3 h stimulation) | activation of NF-κB compared with LPS (P-IκBα and IκBα levels) (THP-1 cells; THP-1, 3 h stimulation, concentration higher than 50 nM) | release of TNF-α, IL-6, and IL-10 compared to 1 (human dendritic cells)
CCCCCCCCCCCCCC(=O)O[C@H](CCCCCCCCCCC)CC(=O)O[C@@H]1[C@@H](NC(=O)C[C@@H](CCCCCCCCCCC)OC(=O)CCCCCCCCCCC)[C@@H](O[C@H]2O[C@H](COP(=O)(O)O)[C@@H](OC(=O)C[C@@H](CCCCCCCCCCC)OC(=O)CCCCCCCCCCC)[C@H](O)[C@@H]2OC)O[C@H](CO)[C@H]1OP(=O)(O)O [Compound 1, 4-O-[(R)-3-(Dodecanoyloxy)tetradecanoyl]-2-O-methyl-6-O-phosphoryl-α-D-mannopyranosyl-(1↔1)-2-deoxy-2-[(R)-3-(dodecanoyloxy)tetradecanoylamino]-4-O-phosphoryl-3-O-[(R)-3-(tetradecanoyloxy)tetradecanoyl]-α-D-glucopyranoside] | 1 | efficiently induced | comparable | detectable after 3h stimulation | more potent | 
CCCCCCCCCCCCCC(=O)O[C@H](CCCCCCCCCCC)CC(=O)O[C@@H]1[C@@H](NC(=O)C[C@@H](CCCCCCCCCCC)OC(=O)CCCCCCCCCCC)[C@@H](O[C@H]2O[C@H](CO)[C@@H](OC(=O)C[C@@H](CCCCCCCCCCC)OC(=O)CCCCCCCCCCC)[C@H](O)[C@@H]2OC)O[C@H](CO)[C@H]1OP(=O)(O)O [Compound 3, 4-O-[(R)-3-(Dodecanoyloxy)tetradecanoyl]-2-O-methyl-α-D-mannopyranosyl-(1↔1)-2-deoxy-2-[(R)-3-(dodecanoyloxy)tetradecanoylamino]-4-O-phosphoryl-3-O-[(R)-3-(tetradecanoyloxy)tetradecanoyl]-α-D-glucopyranoside] |  |  |  |  |  | less efficient
